{
  "source": "patent US12729377B2",
  "about": "“RNAi agents and compositions for inhibiting expression of angiopoietin-like 3 (ANGPTL3), and methods of use” (Arrowhead Pharmaceuticals, Inc., priority 2017, dated 2026)",
  "key": {"[1]": {"system": "ANGPTL3 gene", "assay": "Example 11: dose response, serum LDL in mice", "format": "in vivo, C57bl/6 mice", "experimental": "To assess the dose response of ANGPTL3 RNAi agent AD05488, six- to eight-week-old female C57bl/6 mice were used. Pre-dose serum samples were taken at day −1 after a four hour fast. At day 1, each mouse was given a single subcutaneous administration of 200 μl containing the respective mg/kg dose of an ANGPTL3 RNAi agent in D5W (dextrose in 5% water), or control (D5W) with no RNAi agent, according to the dosing groups recited in Table 53:\nThe RNAi agent tested (AD05488) included a modified sequence and an N-acetyl-galactosamine-containing targeting ligand conjugated to the 5′ terminal end of the sense strand. (See Tables 3, 4, and 5 for modified sequences and targeting ligand structures). The injections were performed between the skin and muscle (i.e. subcutaneous injections) into the loose skin over the neck and shoulder area. Four (4) mice in each group were tested (n=4). Serum was collected on days 8, 15, 22, and 29. Mice were fasted for four hours prior to each collection. ANGPTL3 protein levels in serum were measured by ELISA assay (R&D Systems), according to the manufacturer's recommendations. Triglycerides, total cholesterol, high-density lipoprotein (HDL), and low-density lipoprotein (LDL) in serum were measured on a Cobas® Integra 400 (Roche Diagnostics), according to the manufacturer's recommendations.\nThe ANGPTL3 protein levels, triglyceride levels, total cholesterol levels, HDL levels, and LDL levels for each animal were normalized. For normalization, the level of ANGPTL3 protein, triglyceride, HDL, and total cholesterol, respectively, for each animal at a time point, was divided by the pre-treatment level of expression in that animal (in this case at day −1) to determine the ratio of expression “normalized to pre-treatment.” Expression at a specific time point was then normalized to the D5W control group by dividing the “normalized to pre-treatment” ratio for an individual animal by the mean “normalized to pretreatment” ratio of all mice in the D5W control group."}, "[2]": {"system": "ANGPTL3 protein", "assay": "Example 12: serum ANGPTL3 protein by ELISA in LDLR knockout mice", "format": "in vivo, LDLR KO mice", "source_text": "To evaluate the effect of RNAi agent administration in a disease model, mice having a genetic mutation for the LDL receptor (referred to herein as LDLR KO mice) were commercially obtained (The Jackson Laboratory). The LDLR KO mice are homozygous for the Ldlr^tm1Her mutation, and have elevated serum cholesterol levels, particularly when placed on a high fat diet. For three weeks prior to the onset of the study, thirty-nine (39) LDLR KO mice were placed on a high fat diet (Teklad Custom Diets TD.88137). An additional eight (8) LDLR KO mice were placed on a normal chow diet over the same three-week period. Pre-dose serum samples were taken on day −15 and day −1 after a four hour fast. At day 1, each mouse was given a single subcutaneous administration of 200 μl/30 g animal body weight containing the respective mg/kg dose of an ANGPTL3 RNAi agent in D5W (dextrose in 5% water), control (D5W) with no RNAi agent, or a control RNAi agent that included a nucleotide sequence designed to target the Hepatitis B Virus (HBV) genome. A second injection of the same formulation was administered to the animals on day 29. The dosing regimen for the study is recited in the following Table 60:\nEach mouse remained on its respective diet through the duration of study. The RNAi agent tested (AD05488) included a modified sequence and an N-acetyl-galactosamine-containing targeting ligand conjugated to the 5′ terminal end of the sense strand. (See Tables 3, […] modified sequences and targeting ligand structures). The injections were performed between the skin and muscle (i.e. subcutaneous injections) into the loose skin over the neck and shoulder area. Serum was collected on days 8, 15, 22, 29 (pre-second dose), 36, 43, 50, and 57. LDLR KO mice were fasted for four hours prior to each collection. On day 15, four (4) LDLR KO mice from Groups 1, 2, and 3 (i.e., the groups being administered the high fat “Western” diet) were sacrificed after serum collection, and on day 29, an additional four (4) LDLR KO mice from Groups 1, 2, and 3 were sacrificed after serum collection, for the purpose of performing mRNA assessments.\nANGPTL3 protein levels in serum were measured by ELISA assay (R&D Systems), according to the manufacturer's recommendations. Triglycerides, total cholesterol, high-density lipoprotein (HDL), and low-density lipoprotein (LDL) in serum were measured on a Cobas® Integra 400 (Roche Diagnostics), according to the manufacturer's recommendations.\nThe ANGPTL3 protein levels, triglyceride levels, total cholesterol levels, HDL levels, and LDL levels for each animal were normalized. For normalization, respective levels of ANGPTL3 protein, TG, total cholesterol, HDL, or LDL for each animal at a time point was divided by the average pre-treatment level of expression in that animal (in this case the average of day −15 and day −1) to determine the ratio of expression “normalized to pre-treatment.”\nExpression at a specific time point was then normalized to the D5W control group that was administered the same diet (i.e., either the high fat “Western” diet or the normal chow-fed diet) by dividing the “normalized to pre-treatment” ratio for an individual animal by the mean “normalized to pretreatment” ratio of all mice in the D5W control group on the respective same diet, resulting in expression for each time point normalized to that in the control group."}, "[3]": {"conditions": "day 57, two 3 mg/kg doses, LDLR KO mice on high fat Western diet"}},
  "note": "In the oligonucleotide strings, read from the 5' end, every base follows the letter of its sugar. An asterisk marks phosphorothioate; unmarked linkages are phosphodiester. Other units and linkages are bracketed, terminal groups are in braces. A string of capitals states the bases alone. {NAG37} = tridentate N-acetyl-galactosamine targeting ligand, structure (NAG37)s; [invAb] = inverted abasic unit; m = 2'-O-methyl; f = 2'-fluoro",
  "data": [
    {"substance": "AD05488: RNAi agent duplex: antisense AM07235-AS, sense AM07234-SS (antisense mU*fA*mC*fUmGfAmUfCmAfAmAfUmAfUmGfUmUfGmAfG*mC; sense {NAG37}*[invAb]*mGmCmUmCmAmAmCmAfUfAfUmUmUmGmAmUmCmAmGmUmA*[invAb])", "values": [
      {"measurement": "Avg LDL Normalized to Pre-Treatment and Control", "setting": "[1]; 0.05 mg/kg single sc day 1, Day 8", "result": 0.798},
      {"measurement": "Avg LDL Normalized to Pre-Treatment and Control", "setting": "[1]; 0.05 mg/kg single sc day 1, Day 15", "result": 1.147},
      {"measurement": "Avg LDL Normalized to Pre-Treatment and Control", "setting": "[1]; 0.05 mg/kg single sc day 1, Day 22", "result": 0.772},
      {"measurement": "Avg LDL Normalized to Pre-Treatment and Control", "setting": "[1]; 0.05 mg/kg single sc day 1, Day 29", "result": 0.822},
      {"measurement": "Avg LDL Normalized to Pre-Treatment and Control", "setting": "[1]; 0.1 mg/kg single sc day 1, Day 8", "result": 0.878},
      {"measurement": "Avg LDL Normalized to Pre-Treatment and Control", "setting": "[1]; 0.1 mg/kg single sc day 1, Day 15", "result": 1.153},
      {"measurement": "Avg LDL Normalized to Pre-Treatment and Control", "setting": "[1]; 0.1 mg/kg single sc day 1, Day 22", "result": 0.732},
      {"measurement": "Avg LDL Normalized to Pre-Treatment and Control", "setting": "[1]; 0.1 mg/kg single sc day 1, Day 29", "result": 0.845},
      {"measurement": "Avg LDL Normalized to Pre-Treatment and Control", "setting": "[1]; 0.5 mg/kg single sc day 1, Day 8", "result": 0.816},
      {"measurement": "Avg LDL Normalized to Pre-Treatment and Control", "setting": "[1]; 0.5 mg/kg single sc day 1, Day 15", "result": 1.137},
      {"measurement": "Avg LDL Normalized to Pre-Treatment and Control", "setting": "[1]; 0.5 mg/kg single sc day 1, Day 22", "result": 0.866},
      {"measurement": "Avg LDL Normalized to Pre-Treatment and Control", "setting": "[1]; 0.5 mg/kg single sc day 1, Day 29", "result": 0.896},
      {"measurement": "Avg LDL Normalized to Pre-Treatment and Control", "setting": "[1]; 1.0 mg/kg single sc day 1, Day 8", "result": 0.760},
      {"measurement": "Avg LDL Normalized to Pre-Treatment and Control", "setting": "[1]; 1.0 mg/kg single sc day 1, Day 15", "result": 1.145},
      {"measurement": "Avg LDL Normalized to Pre-Treatment and Control", "setting": "[1]; 1.0 mg/kg single sc day 1, Day 22", "result": 0.993},
      {"measurement": "Avg LDL Normalized to Pre-Treatment and Control", "setting": "[1]; 1.0 mg/kg single sc day 1, Day 29", "result": 1.123},
      {"measurement": "Avg LDL Normalized to Pre-Treatment and Control", "setting": "[1]; 2.5 mg/kg single sc day 1, Day 8", "result": 0.805},
      {"measurement": "Avg LDL Normalized to Pre-Treatment and Control", "setting": "[1]; 2.5 mg/kg single sc day 1, Day 15", "result": 1.185},
      {"measurement": "Avg LDL Normalized to Pre-Treatment and Control", "setting": "[1]; 2.5 mg/kg single sc day 1, Day 22", "result": 0.915},
      {"measurement": "Avg LDL Normalized to Pre-Treatment and Control", "setting": "[1]; 2.5 mg/kg single sc day 1, Day 29", "result": 0.814},
      {"measurement": "Avg LDL Normalized to Pre-Treatment and Control", "setting": "[1]; 5.0 mg/kg single sc day 1, Day 8", "result": 0.802},
      {"measurement": "Avg LDL Normalized to Pre-Treatment and Control", "setting": "[1]; 5.0 mg/kg single sc day 1, Day 15", "result": 1.170},
      {"measurement": "Avg LDL Normalized to Pre-Treatment and Control", "setting": "[1]; 5.0 mg/kg single sc day 1, Day 22", "result": 0.909},
      {"measurement": "Avg LDL Normalized to Pre-Treatment and Control", "setting": "[1]; 5.0 mg/kg single sc day 1, Day 29", "result": 0.932},
      {"measurement": "reductions in ANGPTL3 protein levels", "setting": "[2]; 3.0 mg/kg on days 1 and 29 (Groups 2 and 5), LDLR KO mice", "result": "significant reductions"},
      {"measurement": "Avg ANGPTL3 Protein Normalized to Pre-Treatment and Control (Diet Matched)", "setting": "[2]; 3.0 mg/kg sc day 1, High Fat Diet, Day 8", "result": 0.013},
      {"measurement": "Avg ANGPTL3 Protein Normalized to Pre-Treatment and Control (Diet Matched)", "setting": "[2]; 3.0 mg/kg sc day 1, High Fat Diet, Day 15", "result": 0.009},
      {"measurement": "Avg ANGPTL3 Protein Normalized to Pre-Treatment and Control (Diet Matched)", "setting": "[2]; 3.0 mg/kg sc day 1, High Fat Diet, Day 22", "result": 0.011},
      {"measurement": "Avg ANGPTL3 Protein Normalized to Pre-Treatment and Control (Diet Matched)", "setting": "[2]; 3.0 mg/kg sc day 1, High Fat Diet, Day 29 (pre-second dose)", "result": 0.011},
      {"measurement": "Avg ANGPTL3 Protein Normalized to Pre-Treatment and Control (Diet Matched)", "setting": "[2]; 3.0 mg/kg sc day 1, Normal Diet, Day 8", "result": 0.042},
      {"measurement": "Avg ANGPTL3 Protein Normalized to Pre-Treatment and Control (Diet Matched)", "setting": "[2]; 3.0 mg/kg sc day 1, Normal Diet, Day 15", "result": 0.037},
      {"measurement": "Avg ANGPTL3 Protein Normalized to Pre-Treatment and Control (Diet Matched)", "setting": "[2]; 3.0 mg/kg sc day 1, Normal Diet, Day 22", "result": 0.043},
      {"measurement": "Avg ANGPTL3 Protein Normalized to Pre-Treatment and Control (Diet Matched)", "setting": "[2]; 3.0 mg/kg sc day 1, Normal Diet, Day 29 (pre-second dose)", "result": 0.060},
      {"measurement": "Avg ANGPTL3 Protein Normalized to Pre-Treatment and Control (Diet Matched)", "setting": "[2]; 3.0 mg/kg sc days 1 and 29, High Fat Diet, Day 36", "result": 0.005},
      {"measurement": "Avg ANGPTL3 Protein Normalized to Pre-Treatment and Control (Diet Matched)", "setting": "[2]; 3.0 mg/kg sc days 1 and 29, High Fat Diet, Day 43", "result": 0.005},
      {"measurement": "Avg ANGPTL3 Protein Normalized to Pre-Treatment and Control (Diet Matched)", "setting": "[2]; 3.0 mg/kg sc days 1 and 29, High Fat Diet, Day 50", "result": 0.005},
      {"measurement": "Avg ANGPTL3 Protein Normalized to Pre-Treatment and Control (Diet Matched)", "setting": "[2]; 3.0 mg/kg sc days 1 and 29, High Fat Diet, Day 57", "result": 0.007},
      {"measurement": "Avg ANGPTL3 Protein Normalized to Pre-Treatment and Control (Diet Matched)", "setting": "[2]; 3.0 mg/kg sc days 1 and 29, Normal Diet, Day 36", "result": 0.024},
      {"measurement": "Avg ANGPTL3 Protein Normalized to Pre-Treatment and Control (Diet Matched)", "setting": "[2]; 3.0 mg/kg sc days 1 and 29, Normal Diet, Day 43", "result": 0.024},
      {"measurement": "Avg ANGPTL3 Protein Normalized to Pre-Treatment and Control (Diet Matched)", "setting": "[2]; 3.0 mg/kg sc days 1 and 29, Normal Diet, Day 50", "result": 0.032},
      {"measurement": "Avg ANGPTL3 Protein Normalized to Pre-Treatment and Control (Diet Matched)", "setting": "[2]; 3.0 mg/kg sc days 1 and 29, Normal Diet, Day 57", "result": 0.037},
      {"measurement": "ANGPTL3 protein normalized to pre-treatment and control (diet matched)", "setting": "[2]; [3]", "result": 0.007},
      {"measurement": "reduction in ANGPTL3 protein levels compared to control", "setting": "[2]; [3]", "result": "approximately 99%"}
    ]}
  ]
}
